Patent publication US20050049278A1, “Benzo[1,3]dioxole compounds, pharmaceutical compositions thereof, and processes of making and using the same” (priority 2003, published 2005)
Read-outs that look alike come from different tables or passages of the source.

Experiments:
HEK293 cells [1] = experiment: Cell cycle analysis by FACS of HEK293 cells; type: cell-based; conditions: for Percent of Cells in G1 / Percent of Cells in G2/M / Percent of Cells in S: treated 16 to 24 hrs; for accumulation of cells in G2/M: HEK293, concentrations as in Table 1; for FACS profile / cell cycle effect: HEK293, FACS
Method: Fluorescence-activated cell sorting (FACS) analysis was used to examine the cell cycle state when the cells were incubated with compounds of formula (I) as well as several control compounds, including DMSO, noscapine (a known G2/M inhibitor), and colchicine (a known G2/M inhibitor).
(§1) In particular, HEK293 cells were cultured in DMEM media (Celigro) supplemented with 10% Fetal Bovine Serum (Tissue Culture Biologicals) and 1× Penicillin/Streptomycin/Glutamine (Gibco). The cells were grown at 37° C. with 5% CO2, plated in six-well plates at 2.5×10^6 cells/well, and treated for 16 to 24 hrs with the compounds at the concentrations shown in Table 1, below. The cells were then triturated off the bottom of the wells, washed 1× with PBS, then fixed with 70% ethanol, and stored at 4° C. before staining and FACS analysis.
The DNA content of cells was determined using a FacsVantage SE flow cytometry system (Becton Dickinson, San Jose, Calif.) and a Cellular DNA Flow Cytometric Analysis Kit (Roche Applied Science, Indianapolis, Ind.). Cell cycle analysis was performed using Cylchred 1.0.2 software.

topoisomerase I = molecular target: T1, topoisomerase I (Homo sapiens, UniProt P11387); experiment: Topoisomerase I assay (supercoiled pBluescript DNA, agarose gel); type: biochemical; conditions: in vitro, FIG. 2
T1 construct: purchased Sigma-Aldrich
T1 sequence (P11387 1-765): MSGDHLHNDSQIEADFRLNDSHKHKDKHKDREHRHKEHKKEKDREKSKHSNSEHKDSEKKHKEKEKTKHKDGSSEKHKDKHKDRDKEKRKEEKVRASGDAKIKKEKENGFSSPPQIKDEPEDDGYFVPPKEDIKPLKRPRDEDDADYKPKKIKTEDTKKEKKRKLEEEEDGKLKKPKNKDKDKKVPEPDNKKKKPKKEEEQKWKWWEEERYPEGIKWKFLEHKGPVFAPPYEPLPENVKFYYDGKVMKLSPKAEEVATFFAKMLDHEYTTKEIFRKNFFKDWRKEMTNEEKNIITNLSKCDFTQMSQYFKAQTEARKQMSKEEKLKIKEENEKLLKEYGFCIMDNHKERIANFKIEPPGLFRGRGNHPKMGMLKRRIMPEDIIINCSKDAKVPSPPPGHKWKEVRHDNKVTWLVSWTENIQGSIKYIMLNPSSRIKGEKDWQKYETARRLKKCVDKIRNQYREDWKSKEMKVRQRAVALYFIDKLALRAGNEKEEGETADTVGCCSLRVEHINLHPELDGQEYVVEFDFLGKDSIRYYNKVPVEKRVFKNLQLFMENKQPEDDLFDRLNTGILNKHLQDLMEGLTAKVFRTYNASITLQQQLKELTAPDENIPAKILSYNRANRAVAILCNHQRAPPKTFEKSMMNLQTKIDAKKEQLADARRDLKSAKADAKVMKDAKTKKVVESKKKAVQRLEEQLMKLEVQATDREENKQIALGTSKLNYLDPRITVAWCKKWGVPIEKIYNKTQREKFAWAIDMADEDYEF
Method: (§2) The ability of compounds that cause S-phase cell cycle arrest to inhibit topoisomerase I and topoisomerase II was examined. Analysis of topoisomerase activity was performed in 20 μl reactions with either topoisomerase I reaction buffer (10 mM TRIS-HCl, pH 7.5; 100 mM NaCl; 1 mM 2-mercaptoethanol) or topoisomerase II reaction buffer (50 mM Tris-HCl, pH 8; 120 mM KCl; 10 mM MgCl2; 0.5 mM dithiothreitol; 0.5 mM ATP; 30 μg BSA/ml) containing 125 ng supercoiled pBluescript DNA and either 2 U topoisomerase I (Sigma-Aldrich) or topoisomerase II (Topogen Inc.). After reaction at 37° C. for 20 minutes, the reactions were terminated through the addition of sodium dodecyl sulfate to 1% w/v and heating to 65° C. for 10 minutes. Proteinase K was then added to 10 μg/ml and digestion was allowed to proceed at 37° C. for 20 minutes before electrophoresis of the DNA in 0.8% agarose gels containing 0.5 μg/ml ethidium bromide for 18 hours at 75V in 0.5×TBE buffer. DNA was then visualized using a UV-transilluminator and the image was captured using a BioRad CCD camera and gel documentation system.

topoisomerase II = molecular target: T2, topoisomerase II (Homo sapiens, UniProt P11388); experiment: Topoisomerase II assay (supercoiled pBluescript DNA, agarose gel); type: biochemical; conditions: in vitro, FIG. 2
T2 construct: purchased Topogen Inc
Method: as §2, with “Analysis” for “The ability of compounds that cause S-phase cell cycle arrest to inhibit topoisomerase I and topoisomerase II was examined. Analysis”

[2] = tested on: non-stimulated peripheral blood lymphocytes (PBLs); experiment: Cell cycle analysis on non-stimulated peripheral blood lymphocytes; type: cell-based; conditions: PBL (non-stimulated), 25 μM, 16 to 24 hrs
Method: (§3) The effects of compounds 5a,b on the cell cycle were further examined on phytohemagglutinin (PHA)-stimulated and non-stimulated peripheral blood lymphocytes (PBLs).
as §1, with “PBLs” for “In particular, HEK293 cells”, “2.5-5×10^6” for “2.5×10^6”, “2, below, with or without 1 μg/ml PHA (Sigma).” for “1, below.”

[3] = tested on: phytohemagglutinin (PHA)-stimulated peripheral blood lymphocytes (PBLs); experiment: Cell cycle analysis on phytohemagglutinin-stimulated peripheral blood lymphocytes; type: cell-based; conditions: PHA-stim. PBL (1 μg/ml PHA), 25 μM, 16 to 24 hrs
Method: as §3
as §1, with “PBLs” for “In particular, HEK293 cells”, “2.5-5×10^6” for “2.5×10^6”, “2, below, with or without 1 μg/ml PHA (Sigma).” for “1, below.”

HEK293 cells [4] = experiment: HEK293 cell viability, CellTiter 96 Aqueous One Solution Cell Proliferation assay; type: cell-based; conditions: Homo sapiens, HEK293, 48 h
Method: The effect of various doses of compounds 5a, 5a,b, and 9a on the viability of HEK293 cells was examined using the CellTiter 96 Aqueous One Solution Cell Proliferation assay (Promega). The HEK293 cells were cultured in DMEM media (Cellgro) or phenol red-free DMEM (Gibco) supplemented with 10% Fetal Bovine Serum (Tissue Culture Biologicals) and 1× Penicillin/Streptomycin/Glutamine (Gibco). The cells were grown at 37° C. with 5% CO2. HEK293 cells were seeded into each well of a 96-well plate (5000 cells/well) and incubated overnight to allow the cells to attach. The culture media was removed and replaced with 100 μl of phenol red-free media containing the compounds 5a, 5a,b, and 9a at various concentrations. The cells were allowed to grow in the presence of the compounds for 48 hrs. At the end of the treatment, 20 μl of CellTiter 96 Aqueous One Solution reagent was added directly into each well, and the cells were incubated at 37° C. for 2 hrs. This reagent converts to a form that absorbs light at 490 nm by living cells. Thus, absorbance at 490 nm is proportional to the number of viable cells. The 490 nm absorbance was measured on a BioRad plate reader. Control wells containing no cells were included in this assay to correct for background absorbance.

[5] = tested on: HTS-tubulin (90% tubulin plus 10% microtubule associated proteins); experiment: Microtubule polymerization assay (turbidity at 340 nm); type: biochemical; conditions: absorbance at 340 nm, 30 minutes, 37° C., FIG. 3
Method: Microtubule polymerization assays were performed to determine if compounds, such as compound 9a, cause G2/M cell cycle arrest by affecting microtubule dynamics. A microtubule polymerization assay was performed that takes advantage of the observation that there is an increase in turbidity that can be measured at 340 nm as tubulin heterodimers polymerize to form microtubules. In brief, HTS-tubulin (90% tubulin plus 10% microtubule associated proteins; Cytoskeleton Inc., Denver, Colo.) was resuspended in G-PEM buffer (80 mM Pipes, pH 6.9; 2 mM MgCl2; 0.5 mM EDTA; 1 mM GTP) to 10 mg/ml. This suspension was clarified by centrifugation for 10 min. at 225,000×g. The supernatant was then diluted with G-PEM buffer to 2 mg/ml and 100 μl of this solution was added to the appropriate number of ½-area wells in a 96-well format (Corning). Each compound (10 μl of a 10× final concentration in 10% DMSO) was added to the wells in duplicate and immediately put into a pre-warmed (37° C.) Spectromax 190 plate reader. The absorbance was read at 340 nm immediately (time=0) and every minute thereafter for 30 minutes.
The tubulin mix was incubated in the presence of paclitaxel (a microtubule stabilizing agent), nocodazole (a microtubule destabilizing agent), vehicle control (DMSO), or varying concentrations of compound 9a (FIG. 3).

T2 sequence (P11388 whole entry): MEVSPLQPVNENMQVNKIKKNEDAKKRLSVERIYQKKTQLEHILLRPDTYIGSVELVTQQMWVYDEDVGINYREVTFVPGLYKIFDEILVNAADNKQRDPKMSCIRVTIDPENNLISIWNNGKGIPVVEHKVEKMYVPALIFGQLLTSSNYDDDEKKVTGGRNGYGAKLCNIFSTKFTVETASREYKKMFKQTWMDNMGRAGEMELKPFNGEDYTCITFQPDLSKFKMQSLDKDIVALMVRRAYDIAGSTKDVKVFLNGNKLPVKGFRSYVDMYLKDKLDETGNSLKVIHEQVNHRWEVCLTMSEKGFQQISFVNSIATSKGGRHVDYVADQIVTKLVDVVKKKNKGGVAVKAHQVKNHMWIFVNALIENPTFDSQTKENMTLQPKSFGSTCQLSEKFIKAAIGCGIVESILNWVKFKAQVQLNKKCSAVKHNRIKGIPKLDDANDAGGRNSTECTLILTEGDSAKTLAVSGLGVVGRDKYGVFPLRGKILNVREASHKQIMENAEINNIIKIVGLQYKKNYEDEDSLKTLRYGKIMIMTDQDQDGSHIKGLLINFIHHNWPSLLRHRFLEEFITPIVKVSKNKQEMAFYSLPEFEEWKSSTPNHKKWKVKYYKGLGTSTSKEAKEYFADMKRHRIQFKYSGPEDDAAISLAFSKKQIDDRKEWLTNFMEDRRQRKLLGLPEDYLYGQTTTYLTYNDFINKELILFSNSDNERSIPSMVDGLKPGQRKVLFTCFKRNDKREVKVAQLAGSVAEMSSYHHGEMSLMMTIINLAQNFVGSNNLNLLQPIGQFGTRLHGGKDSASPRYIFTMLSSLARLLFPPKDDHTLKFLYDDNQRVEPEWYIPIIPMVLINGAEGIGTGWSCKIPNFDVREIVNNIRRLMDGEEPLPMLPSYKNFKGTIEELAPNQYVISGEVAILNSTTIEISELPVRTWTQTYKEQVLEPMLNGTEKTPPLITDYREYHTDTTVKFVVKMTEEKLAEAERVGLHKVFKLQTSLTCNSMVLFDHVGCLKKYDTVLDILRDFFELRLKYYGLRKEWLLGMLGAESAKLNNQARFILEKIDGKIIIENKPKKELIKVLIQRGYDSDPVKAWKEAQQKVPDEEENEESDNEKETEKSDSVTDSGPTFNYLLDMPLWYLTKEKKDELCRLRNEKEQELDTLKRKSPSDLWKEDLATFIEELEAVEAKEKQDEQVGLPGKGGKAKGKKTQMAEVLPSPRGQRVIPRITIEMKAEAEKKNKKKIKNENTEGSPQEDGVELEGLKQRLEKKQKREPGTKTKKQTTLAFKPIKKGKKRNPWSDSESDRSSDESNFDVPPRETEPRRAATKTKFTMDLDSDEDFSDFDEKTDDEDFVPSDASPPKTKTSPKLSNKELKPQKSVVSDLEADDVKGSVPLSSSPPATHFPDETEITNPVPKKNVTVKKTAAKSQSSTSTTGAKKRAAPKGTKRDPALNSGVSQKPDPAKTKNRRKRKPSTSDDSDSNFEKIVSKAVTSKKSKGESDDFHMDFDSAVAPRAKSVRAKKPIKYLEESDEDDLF

In the case of `COc1ccc2c(c1)C(=O)O[C@@H]2[C@H]1c2c(cc3c(c2OC)OCO3)CCN1C` [Compound 12], the “Percent of Cells in G1” value (HEK293 cells [1]; HEK293, 1 μM) is reported as 3.8%, the “Percent of Cells in G2/M” value (HEK293 cells [1]; HEK293, 1 μM) is reported as 89.8% and the “Percent of Cells in S” value (HEK293 cells [1]; HEK293, 1 μM) is reported as 6.4%. The “accumulation of cells in G2/M” value (HEK293 cells [1]) was roughly 90%.
In the case of `COc1ccc2c(c1OCc1ccccc1)C(=O)OC2[C@H]1c2c(cc3c(c2OC)OCO3)CCN1C` (stereo partly shown) [6a,b], the “Percent of Cells in G1” value (HEK293 cells [1]; HEK293, 50 μM) is reported as 12.1%, the “Percent of Cells in G2/M” value (HEK293 cells [1]; HEK293, 50 μM) is reported as 16.7% and the “Percent of Cells in S” value (HEK293 cells [1]; HEK293, 50 μM) is reported as 71.2%. The “FACS profile / cell cycle effect” value (HEK293 cells [1]) was “accumulating in S-phase”.
In the case of `COc1cc2c(c(OC)c1OC)-c1ccc(OC)c(=O)cc1[C@@H](NC(C)=O)CC2` [colchicine, reference compound], the “Percent of Cells in G1” value (HEK293 cells [1]; HEK293, 10 μM) is reported as 2.7%, the “Percent of Cells in G2/M” value (HEK293 cells [1]; HEK293, 10 μM) is reported as 83.4% and the “Percent of Cells in S” value (HEK293 cells [1]; HEK293, 10 μM) is reported as 13.9%.
For `CC[C@@]1(O)C(=O)OCc2c1cc1n(c2=O)Cc2cc3c(CN(C)C)c(O)ccc3nc2-1` [topotecan], the “concentrations at which topoisomerase I activity was inhibited” value (topoisomerase I) was “below 3 μM” and the “inhibition of topoisomerase II activity” value (topoisomerase II) was “neither topotecan nor noscapine acts as inhibitors”.
With `COc1cc(COc2c(OC)ccc3c2C(=O)OC3[C@H]2c3c(cc4c(c3OC)OCO4)CCN2C)cc(OC)c1OC` (stereo partly shown) [Compound 5a,b] the “Percent of Cells in G1” value (HEK293 cells [1]; HEK293, 50 μM) was 13.1%, the “Percent of Cells in G2/M” value (HEK293 cells [1]; HEK293, 50 μM) was 6.3% and the “Percent of Cells in S” value (HEK293 cells [1]; HEK293, 50 μM) was 80.7%. For the same molecule, the “FACS profile / cell cycle effect” value (HEK293 cells [1]) was “accumulate more cells in S-phase than 6a,b”, the “Percent of Cells in G1” value [2] was 91.6% and the “Percent of Cells in G2/M” value [2] was 1.5%. For the same molecule, the “Percent of Cells in S” value [2] was 6.8%, the “Percent of Cells in G1” value [3] was 69.3% and the “Percent of Cells in G2/M” value [3] was 5.4%. For the same molecule, the “Percent of Cells in S” value [3] was 25.3%, the EC50 (HEK293 cells [4]) was 400 nM and the EC50 (HEK293 cells [4]; text summary) was less than 1000 nM.
`COC(=O)Nc1nc2ccc(C(=O)c3cccs3)cc2[nH]1` [Nocodazole, reference compound] was tested, and the EC50 (HEK293 cells [4]; read-out: EC50) was less than 20 nM and the “effect on microtubule polymerization” value [5] was “decreased microtubule polymerization”.
`COc1ccc2c(c1S)C(=O)O[C@@H]2[C@H]1c2c(cc3c(c2OC)OCO3)CCN1C` [Compound 13] was tested, and the “Percent of Cells in G1” value (HEK293 cells [1]; HEK293, 5 μM) was 3.2%, the “Percent of Cells in G2/M” value (HEK293 cells [1]; HEK293, 5 μM) was 89.6% and the “Percent of Cells in S” value (HEK293 cells [1]; HEK293, 5 μM) was 7.2%. The “accumulation of cells in G2/M” value (HEK293 cells [1]) was roughly 90%.
`COc1cc(COc2c(OC)ccc3c2C(=O)O[C@@H]3[C@H]2c3c(cc4c(c3OC)OCO4)CCN2C)cc(OC)c1OC` [Compound 5a] showed an EC50 (HEK293 cells [4]; read-out: EC50) of 300 nM and an EC50 (HEK293 cells [4]; text summary, read-out: EC50) of less than 1000 nM.
For `CC(=O)O[C@H]1C(=O)[C@@]2(C)[C@H]([C@H](OC(=O)c3ccccc3)[C@]3(O)C[C@H](OC(=O)[C@H](O)[C@@H](NC(=O)c4ccccc4)c4ccccc4)C(C)=C1C3(C)C)[C@]1(OC(C)=O)CO[C@@H]1C[C@@H]2O` [Paclitaxel, reference compound], the EC50 (HEK293 cells [4]; read-out: EC50) was less than 100 nM and the “effect on microtubule polymerization” value [5] was “increased microtubule polymerization”.
In the case of `COc1ccc2c(c1C#N)C(=O)O[C@@H]2[C@H]1c2c(cc3c(c2OC)OCO3)CCN1C` [Compound 10, 5-methoxy-1-(4-methoxy-6-methyl-5,6,7,8-tetrahydro-[1,3]dioxolo-[4,5-g]isoguinolin-5-yl)-3-oxo-1,3-dihydro-isobenzofuran-4-carbonitrile], the “Percent of Cells in G1” value (HEK293 cells [1]; HEK293, 50 μM) is reported as 2%, the “Percent of Cells in G2/M” value (HEK293 cells [1]; HEK293, 50 μM) is reported as 89.2% and the “Percent of Cells in S” value (HEK293 cells [1]; HEK293, 50 μM) is reported as 8.8%. The “accumulation of cells in G2/M” value (HEK293 cells [1]) was roughly 90%.
For `COc1cc([C@@H]2c3cc4c(cc3[C@@H](O[C@@H]3O[C@@H]5CO[C@@H](C)O[C@H]5[C@H](O)[C@H]3O)[C@H]3COC(=O)[C@H]23)OCO4)cc(OC)c1O` [etoposide], the “inhibition of topoisomerase I activity” value (topoisomerase I) was “neither etoposide nor noscapine inhibited”.
